ChEMBL document CHEMBL1136748, “A novel N-terminal cyclic dynorphin A analogue cyclo(N,5)[Trp(3),Trp(4),Glu(5)] dynorphin A-(1-11)NH(2) that lacks the basic N-terminus” (J Med Chem, 2003)
Where a SMILES comes first, the peptide text is derived from it. Bridges are numbered along the chain shown (N, C = ends). [ ]: non-standard residue; d: D form.

Experiments:
Assay type in all cases: cell-based
[1] = biological target: Kappa-type opioid receptor (Rattus norvegicus) (UniProt P34975); experiment: Tested for maximum percentage inhibition against cloned rat Opioid receptor kappa 1 stably expressed in CHO cells by adenylyl cyclase assay
Sequence of Kappa-type opioid receptor (Rattus norvegicus) (P34975 whole entry): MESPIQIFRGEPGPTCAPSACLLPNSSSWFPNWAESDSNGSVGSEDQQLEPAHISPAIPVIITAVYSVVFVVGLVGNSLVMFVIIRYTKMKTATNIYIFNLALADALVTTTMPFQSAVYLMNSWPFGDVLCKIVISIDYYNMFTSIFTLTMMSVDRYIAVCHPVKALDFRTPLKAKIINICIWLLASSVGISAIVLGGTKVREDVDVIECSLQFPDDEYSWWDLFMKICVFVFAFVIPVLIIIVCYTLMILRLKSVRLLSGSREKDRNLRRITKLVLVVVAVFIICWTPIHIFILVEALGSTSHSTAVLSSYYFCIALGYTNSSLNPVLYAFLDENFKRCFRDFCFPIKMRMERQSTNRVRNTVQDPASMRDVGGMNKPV

Mu-type opioid receptor = Mu-type opioid receptor (Homo sapiens, UniProt P35372); experiment: Binding affinity towards Opioid receptor mu 1 using [3H]DAMGO as radioligand in Chinese hamster ovary cells expressing cloned opioid receptors
Sequence of Mu-type opioid receptor (P35372 whole entry): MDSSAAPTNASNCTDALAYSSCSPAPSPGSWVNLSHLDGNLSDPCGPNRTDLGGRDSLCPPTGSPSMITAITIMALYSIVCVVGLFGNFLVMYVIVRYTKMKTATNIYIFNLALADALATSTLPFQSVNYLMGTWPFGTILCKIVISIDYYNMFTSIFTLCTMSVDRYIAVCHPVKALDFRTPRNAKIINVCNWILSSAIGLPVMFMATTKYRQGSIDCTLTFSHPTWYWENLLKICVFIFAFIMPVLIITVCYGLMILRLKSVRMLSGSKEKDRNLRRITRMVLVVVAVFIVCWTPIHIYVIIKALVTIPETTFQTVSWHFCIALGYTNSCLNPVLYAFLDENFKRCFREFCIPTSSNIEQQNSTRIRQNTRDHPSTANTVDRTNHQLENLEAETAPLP

[2] = biological target: Kappa-type opioid receptor (Cavia porcellus, UniProt P41144); experiment: Binding affinity towards Opioid receptor kappa 1 using [3H]diprenorphine as radioligand in Chinese hamster ovary cells expressing cloned opioid receptors
Sequence of Kappa-type opioid receptor (P41144 whole entry): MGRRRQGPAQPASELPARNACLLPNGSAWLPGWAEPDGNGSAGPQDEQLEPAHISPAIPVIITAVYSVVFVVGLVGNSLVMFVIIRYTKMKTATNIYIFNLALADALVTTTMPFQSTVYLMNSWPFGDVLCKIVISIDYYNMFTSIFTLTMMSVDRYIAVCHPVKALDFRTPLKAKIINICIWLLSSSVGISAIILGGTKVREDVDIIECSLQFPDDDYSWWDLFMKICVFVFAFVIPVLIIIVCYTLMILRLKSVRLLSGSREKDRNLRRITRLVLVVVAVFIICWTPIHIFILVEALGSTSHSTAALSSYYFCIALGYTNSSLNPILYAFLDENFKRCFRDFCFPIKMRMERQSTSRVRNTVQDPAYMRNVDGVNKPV

[3] = biological target: Delta-type opioid receptor (Rattus norvegicus, UniProt P33533); experiment: Binding affinity towards Opioid receptor delta 1 using [3H]DPDPE as radioligand in Chinese hamster ovary cells expressing cloned opioid receptors
Sequence of Delta-type opioid receptor (P33533 whole entry): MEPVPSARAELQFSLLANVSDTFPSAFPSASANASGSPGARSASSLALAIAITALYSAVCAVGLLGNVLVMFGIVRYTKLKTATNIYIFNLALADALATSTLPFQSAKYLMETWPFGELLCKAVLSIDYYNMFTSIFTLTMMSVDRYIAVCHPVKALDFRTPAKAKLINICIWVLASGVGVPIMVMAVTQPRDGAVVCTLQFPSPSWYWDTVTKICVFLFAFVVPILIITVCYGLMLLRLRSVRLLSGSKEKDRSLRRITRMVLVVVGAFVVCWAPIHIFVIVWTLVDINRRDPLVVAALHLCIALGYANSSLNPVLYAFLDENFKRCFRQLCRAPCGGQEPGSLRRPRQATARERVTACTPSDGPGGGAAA

Molecule | inhibition [1] | Ki (Mu-type opioid receptor) | Ki [2] | Ki [3]
CC(=O)N[C@@H](Cc1ccc(O)cc1)C(=O)NCC(=O)N[C@@H](Cc1c[nH]c2ccccc12)C(=O)N[C@@H](Cc1c[nH]c2ccccc12)C(=O)N[C@@H](CC(C)C)C(=O)N[C@@H](CCCN=C(N)N)C(=O)N[C@@H](CCCN=C(N)N)C(=O)N[C@@H](C)C(=O)N[C@@H](CCCN=C(N)N)C(=O)N1CCC[C@H]1C(=O)N[C@@H](CCCCN)C(N)=O | 15% | – | – | –
CC[C@H](C)[C@H](NC(=O)[C@H](CCCN=C(N)N)NC(=O)[C@H](CCCN=C(N)N)NC(=O)[C@@H]1CCC(=O)N[C@@H](Cc2ccc(O)cc2)C(=O)NCC(=O)N[C@@H](Cc2c[nH]c3ccccc23)C(=O)N[C@@H](Cc2c[nH]c3ccccc23)C(=O)N1)C(=O)N[C@@H](CCCN=C(N)N)C(=O)N1CCC[C@@H]1C(=O)N[C@@H](CCCCN)C(=O)O | 8% | – | – | –
CC[C@H](C)[C@H](NC(=O)[C@H](CCCNC(=N)N)NC(=O)[C@H](CCCNC(=N)N)NC(=O)[C@@H]1CCC(=O)N[C@@H](Cc2ccc(O)cc2)C(=O)NCC(=O)N[C@@H](Cc2c[nH]c3ccccc23)C(=O)N[C@@H](Cc2c[nH]c3ccccc23)C(=O)N1)C(=O)N[C@@H](CCCNC(=N)N)C(=O)N1CCC[C@H]1C(=O)N[C@@H](CCCCN)C(N)=O (YGWWERRIRPK-NH2; lactam N-5) | – | 331 nM | 26.8 nM | > 8900 nM
CC(=O)N[C@@H](Cc1ccc(O)cc1)C(=O)N[C@@H](CCCCN)C(=O)N[C@@H](Cc1c[nH]c2ccccc12)C(=O)N[C@@H](Cc1c[nH]c2ccccc12)C(=O)N[C@@H](CC(C)C)C(=O)N[C@@H](CCCN=C(N)N)C(=O)N[C@@H](CCCN=C(N)N)C(=O)N[C@H](C)C(=O)N[C@@H](CCCN=C(N)N)C(=O)N1CCC[C@H]1C(=O)N[C@@H](CCCCN)C(N)=O [VENORPHIN] (Ac-YKWWLRR[dA]RPK-NH2) | – | – | 19.8 nM | 5320 nM
CC(=O)N[C@@H](Cc1ccc(O)cc1)C(=O)NCC(=O)N[C@@H](Cc1c[nH]c2ccccc12)C(=O)N[C@@H](Cc1c[nH]c2ccccc12)C(=O)N[C@@H](CC(C)C)C(=O)N[C@@H](CCCN=C(N)N)C(=O)N[C@@H](CCCN=C(N)N)C(=O)N[C@H](C)C(=O)N[C@@H](CCCN=C(N)N)C(=O)N1CCC[C@H]1C(=O)N[C@@H](CCCCN)C(N)=O [[GLY2]VENORPHIN] | – | 339 nM | 8.4 nM | > 10000 nM
Ac-YKWWLRRARPK-NH2 | 28% | – | – | –
